ChEMBL document CHEMBL4396865, “Current advances of triazole alcohols derived from fluconazole: Design, in vitro and in silico studies” (2019)
Values after ≈ are worked out from the molar mass of the structure shown.

Columns and labels:
Format in all cases: functional
Candida tropicalis [1] = assay: Antifungal activity against Candida tropicalis; conditions: Candida tropicalis
Pichia kudriavzevii = assay: Antifungal activity against Candida krusei
Candida albicans [2] = assay: Antifungal activity against Candida albicans; conditions: Candida albicans
Candida parapsilosis [3] = assay: Antifungal activity against Candida parapsilosis; conditions: Lodderomyces parapsilosis
Cryptococcus neoformans [4] = assay: Antifungal activity against Cryptococcus neoformans; conditions: Cryptococcus neoformans
Candida albicans [5] = assay: Antifungal activity against fluconalzole-susceptible Candida albicans after 24 hrs
Candida parapsilosis [6] = assay: Antifungal activity against fluconalzole-susceptible Candida parapsilosis after 24 hrs; conditions: Lodderomyces parapsilosis
Candida albicans [7] = assay: Potency index, ratio of fluconazole MIC to test compound MIC for Candida albicans ATCC 76615
Trichophyton rubrum [8] = assay: Potency index, ratio of fluconazole MIC to test compound MIC for Trichophyton rubrum
Aspergillus fumigatus [9] = assay: Potency index, ratio of fluconazole MIC to test compound MIC for Aspergillus fumigatus
Microsporum canis [10] = assay: Potency index, ratio of fluconazole MIC to test compound MIC for Microsporum canis
Candida tropicalis [11] = assay: Potency index, ratio of fluconazole MIC to test compound MIC for Candida tropicalis
Candida tropicalis [12] = assay: Antifungal activity against Candida tropicalis after 24 hrs by microbroth dilution method
Fonsecaea compacta [13] = assay: Potency index, ratio of fluconazole MIC to test compound MIC for Fonsecaea compacta
Fonsecaea compacta [14] = assay: Antifungal activity against Fonsecaea compacta after 24 hrs by microbroth dilution method
Trichophyton rubrum [15] = assay: Antifungal activity against Trichophyton rubrum after 24 hrs by microbroth dilution method
Cryptococcus neoformans [16] = assay: Potency index, ratio of fluconazole MIC to test compound MIC for activity against Cryptococcus neoformans ATCC 32609
Aspergillus fumigatus [17] = assay: Antifungal activity against Aspergillus fumigatus after 24 hrs by microbroth dilution method
Microsporum canis [18] = assay: Antifungal activity against Microsporum canis after 24 hrs by microbroth dilution method
Aspergillus fumigatus [19] = assay: Antifungal activity against Aspergillus fumigatus; conditions: Aspergillus fumigatus; read-out: MIC

SMILES	MIC80 (Candida tropicalis [1])	MIC80 (Pichia kudriavzevii)	MIC80 (Candida albicans [2])	MIC80 (Candida parapsilosis [3])	MIC80 (Cryptococcus neoformans [4])	Ratio (Candida albicans [7])	Ratio (Trichophyton rubrum [8])	Ratio (Aspergillus fumigatus [9])	Ratio (Microsporum canis [10])	Ratio (Candida tropicalis [11])	MIC80 (Candida tropicalis [12])	Ratio (Fonsecaea compacta [13])	MIC80 (Fonsecaea compacta [14])	MIC80 (Trichophyton rubrum [15])	Ratio (Cryptococcus neoformans [16])	MIC80 (Aspergillus fumigatus [17])	MIC80 (Microsporum canis [18])	other results
CN(CC(=O)Nc1ccc(Cl)cc1)CC(O)(Cn1cncn1)c1ccc(F)cc1F (stereo unspecified)	0.25 to 1 µg/mL (≈ 0.574 to 2.29 µM)	0.25 to 1 µg/mL (≈ 0.574 to 2.29 µM)	0.0156 µg/mL (≈ 0.0358 µM)	0.25 to 1 µg/mL (≈ 0.574 to 2.29 µM)	0.0156 µg/mL (≈ 0.0358 µM)													
CN(CC(=O)Nc1ccc(Cl)c(Cl)c1)CC(O)(Cn1cncn1)c1ccc(F)cc1F (stereo unspecified)	0.25 to 1 µg/mL (≈ 0.532 to 2.13 µM)	0.25 to 1 µg/mL (≈ 0.532 to 2.13 µM)	0.0156 µg/mL (≈ 0.0332 µM)	0.25 to 1 µg/mL (≈ 0.532 to 2.13 µM)	0.0156 µg/mL (≈ 0.0332 µM)													
OC(Cn1cncn1)(Cn1cnc(SCc2ccccc2)n1)c1ccc(F)cc1F (stereo unspecified)																		MIC (Candida albicans [5]): 0.063 to 1 µg/mL (≈ 0.147 to 2.33 µM); MIC (Candida parapsilosis [6]): 0.063 to 1 µg/mL (≈ 0.147 to 2.33 µM)
Cc1ccc(CN(CC(O)(Cn2cncn2)c2ccc(F)cc2F)C2CC2)cc1 (stereo unspecified)						4	4	4	4	4	0.125 µg/mL (≈ 0.314 µM)	4	0.125 µg/mL (≈ 0.314 µM)	0.125 µg/mL (≈ 0.314 µM)	4	0.125 µg/mL (≈ 0.314 µM)	0.125 µg/mL (≈ 0.314 µM)	
Cc1cc(C)cc(NC(=O)CN(C)CC(O)(Cn2cncn2)c2ccc(F)cc2F)c1 (stereo unspecified)	0.25 to 1 µg/mL (≈ 0.582 to 2.33 µM)	0.25 to 1 µg/mL (≈ 0.582 to 2.33 µM)	0.0156 µg/mL (≈ 0.0363 µM)	0.25 to 1 µg/mL (≈ 0.582 to 2.33 µM)	0.0156 µg/mL (≈ 0.0363 µM)													
OC(CN(Cc1ccc(F)cc1F)C1CC1)(Cn1cncn1)c1ccc(F)cc1F (stereo unspecified)						4	4	4	4	4	0.125 µg/mL (≈ 0.297 µM)	4	0.125 µg/mL (≈ 0.297 µM)	0.125 µg/mL (≈ 0.297 µM)	4	0.125 µg/mL (≈ 0.297 µM)	0.125 µg/mL (≈ 0.297 µM)	
OC(CN(Cc1ccc(Br)cc1)C1CC1)(Cn1cncn1)c1ccc(F)cc1F (stereo unspecified)						4	4	4	4	4	0.125 µg/mL (≈ 0.27 µM)	4	0.125 µg/mL (≈ 0.27 µM)	0.125 µg/mL (≈ 0.27 µM)	4	0.125 µg/mL (≈ 0.27 µM)	0.125 µg/mL (≈ 0.27 µM)	
Cc1ccc(NC(=O)CN(C)CC(O)(Cn2cncn2)c2ccc(F)cc2F)c(C)c1 (stereo unspecified)	0.25 to 1 µg/mL (≈ 0.582 to 2.33 µM)	0.25 to 1 µg/mL (≈ 0.582 to 2.33 µM)	0.0156 µg/mL (≈ 0.0363 µM)	0.25 to 1 µg/mL (≈ 0.582 to 2.33 µM)	0.0156 µg/mL (≈ 0.0363 µM)													
Cc1ccc(NC(=O)CN(C)CC(O)(Cn2cncn2)c2ccc(F)cc2F)cc1 (stereo unspecified)	0.25 to 1 µg/mL (≈ 0.602 to 2.41 µM)	0.25 to 1 µg/mL (≈ 0.602 to 2.41 µM)	0.0156 µg/mL (≈ 0.0376 µM)	0.25 to 1 µg/mL (≈ 0.602 to 2.41 µM)	0.0156 µg/mL (≈ 0.0376 µM)													
CN(CC(=O)Nc1ccc(OC(F)(F)F)cc1)CC(O)(Cn1cncn1)c1ccc(F)cc1F (stereo unspecified)	0.25 to 1 µg/mL (≈ 0.515 to 2.06 µM)	0.25 to 1 µg/mL (≈ 0.515 to 2.06 µM)	0.0156 µg/mL (≈ 0.0321 µM)	0.25 to 1 µg/mL (≈ 0.515 to 2.06 µM)	0.0156 µg/mL (≈ 0.0321 µM)													
Cc1ccccc1CN(CC(O)(Cn1cncn1)c1ccc(F)cc1F)C1CC1 (stereo unspecified)						4	4	4	4	4	0.125 µg/mL (≈ 0.314 µM)	4	0.125 µg/mL (≈ 0.314 µM)	0.125 µg/mL (≈ 0.314 µM)	4	0.125 µg/mL (≈ 0.314 µM)	0.125 µg/mL (≈ 0.314 µM)	
CC(C)(C)c1ccc(CN(CC(O)(Cn2cncn2)c2ccc(F)cc2F)C2CC2)cc1 (stereo unspecified)						4	4	4	4	4	0.125 µg/mL (≈ 0.284 µM)	4	0.125 µg/mL (≈ 0.284 µM)	0.125 µg/mL (≈ 0.284 µM)	4	0.125 µg/mL (≈ 0.284 µM)	0.125 µg/mL (≈ 0.284 µM)	
OC(CN(Cc1ccc(Cl)cc1)C1CC1)(Cn1cncn1)c1ccc(F)cc1F (stereo unspecified)						4	4	4	4	4	0.125 µg/mL (≈ 0.298 µM)	4	0.125 µg/mL (≈ 0.298 µM)	0.125 µg/mL (≈ 0.298 µM)	4	0.125 µg/mL (≈ 0.298 µM)	0.125 µg/mL (≈ 0.298 µM)	
OC(CN(Cc1ccccc1F)C1CC1)(Cn1cncn1)c1ccc(F)cc1F (stereo unspecified)						4	4	4	4	4	0.125 µg/mL (≈ 0.311 µM)	4	0.125 µg/mL (≈ 0.311 µM)	0.125 µg/mL (≈ 0.311 µM)	4	0.125 µg/mL (≈ 0.311 µM)	0.125 µg/mL (≈ 0.311 µM)	
COc1cccc(NC(=O)CN(C)CC(O)(Cn2cncn2)c2ccc(F)cc2F)c1 (stereo unspecified)	0.25 to 1 µg/mL (≈ 0.579 to 2.32 µM)	0.25 to 1 µg/mL (≈ 0.579 to 2.32 µM)	0.0156 µg/mL (≈ 0.0362 µM)	0.25 to 1 µg/mL (≈ 0.579 to 2.32 µM)	0.0156 µg/mL (≈ 0.0362 µM)													
OC(CN(Cc1ccccc1)C1CC1)(Cn1cncn1)c1ccc(F)cc1F (stereo unspecified)						4	4	4	4	4	0.125 µg/mL (≈ 0.325 µM)	4	0.125 µg/mL (≈ 0.325 µM)	0.125 µg/mL (≈ 0.325 µM)	4	0.125 µg/mL (≈ 0.325 µM)	0.125 µg/mL (≈ 0.325 µM)	
Cc1ccc(NC(=O)CN(C)CC(O)(Cn2cncn2)c2ccc(F)cc2F)cc1C (stereo unspecified)	0.25 to 1 µg/mL (≈ 0.582 to 2.33 µM)	0.25 to 1 µg/mL (≈ 0.582 to 2.33 µM)	0.0156 µg/mL (≈ 0.0363 µM)	0.25 to 1 µg/mL (≈ 0.582 to 2.33 µM)	0.0156 µg/mL (≈ 0.0363 µM)													
OC(CN(Cc1ccccc1Cl)C1CC1)(Cn1cncn1)c1ccc(F)cc1F (stereo unspecified)						4	4	4	4	4	0.125 µg/mL (≈ 0.298 µM)	4	0.125 µg/mL (≈ 0.298 µM)	0.125 µg/mL (≈ 0.298 µM)	4	0.125 µg/mL (≈ 0.298 µM)	0.125 µg/mL (≈ 0.298 µM)	
OC(CN(Cc1ccccc1Br)C1CC1)(Cn1cncn1)c1ccc(F)cc1F (stereo unspecified)						4	4	4	4	4	0.125 µg/mL (≈ 0.27 µM)	4	0.125 µg/mL (≈ 0.27 µM)	0.125 µg/mL (≈ 0.27 µM)	4	0.125 µg/mL (≈ 0.27 µM)	0.125 µg/mL (≈ 0.27 µM)	
CCCCOc1ccccc1N1CCN(CCc2nnn(CC(O)(Cn3cncn3)c3ccc(F)cc3F)n2)CC1 (stereo unspecified)																		MIC (Candida tropicalis [1]; read-out: MIC): 1 to 8 µg/mL (≈ 1.76 to 14.1 µM); MIC (Pichia kudriavzevii): 1 to 8 µg/mL (≈ 1.76 to 14.1 µM); MIC (Aspergillus fumigatus [19]): 1 to 8 µg/mL (≈ 1.76 to 14.1 µM); MIC (Candida albicans [2]; read-out: MIC): 1 to 8 µg/mL (≈ 1.76 to 14.1 µM); MIC (Cryptococcus neoformans [4]; read-out: MIC): 1 to 8 µg/mL (≈ 1.76 to 14.1 µM)
CN(CC(=O)Nc1ccc(F)cc1)CC(O)(Cn1cncn1)c1ccc(F)cc1F (stereo unspecified)	0.25 to 1 µg/mL (≈ 0.596 to 2.38 µM)	0.25 to 1 µg/mL (≈ 0.596 to 2.38 µM)	0.0156 µg/mL (≈ 0.0372 µM)	0.25 to 1 µg/mL (≈ 0.596 to 2.38 µM)	0.0156 µg/mL (≈ 0.0372 µM)													
OC(Cn1cncn1)(Cn1cnc(SCc2ccc(Cl)cc2)n1)c1ccc(F)cc1F (stereo unspecified)																		MIC (Candida albicans [5]): 0.063 to 1 µg/mL (≈ 0.136 to 2.16 µM); MIC (Candida parapsilosis [6]): 0.063 to 1 µg/mL (≈ 0.136 to 2.16 µM)
CN(CC(=O)Nc1ccc(Br)cc1)CC(O)(Cn1cncn1)c1ccc(F)cc1F (stereo unspecified)	0.25 to 1 µg/mL (≈ 0.52 to 2.08 µM)	0.25 to 1 µg/mL (≈ 0.52 to 2.08 µM)	0.0156 µg/mL (≈ 0.0325 µM)	0.25 to 1 µg/mL (≈ 0.52 to 2.08 µM)	0.0156 µg/mL (≈ 0.0325 µM)													
OC(CN(Cc1ccc(F)cc1)C1CC1)(Cn1cncn1)c1ccc(F)cc1F (stereo unspecified)						4	4	4	4	4	0.125 µg/mL (≈ 0.311 µM)	4	0.125 µg/mL (≈ 0.311 µM)	0.125 µg/mL (≈ 0.311 µM)	4	0.125 µg/mL (≈ 0.311 µM)	0.125 µg/mL (≈ 0.311 µM)	
CN(CC(=O)Nc1cc(Cl)ccc1Cl)CC(O)(Cn1cncn1)c1ccc(F)cc1F (stereo unspecified)	0.25 to 1 µg/mL (≈ 0.532 to 2.13 µM)	0.25 to 1 µg/mL (≈ 0.532 to 2.13 µM)	0.0156 µg/mL (≈ 0.0332 µM)	0.25 to 1 µg/mL (≈ 0.532 to 2.13 µM)	0.0156 µg/mL (≈ 0.0332 µM)													
